Assay results reported in publication PMC4666614, “Identification of New Regions in HIV-1 gp120 Variable 2 and 3 Loops that Bind to α4β7 Integrin Receptor” (PLoS ONE, 2015).
“And” between values parts separate entries of the source, which are not always exact repeats. Equal values may be shown once. Bridge positions count the residues as written; N and C are the ends. Ends that are not written are not given here.

How the values were obtained:
[1] = system: α4β7 integrin binding to MAdCAM-1; assay: Competitive inhibition of binding of α4β7 on RPMI8866 cells to MAdCAM-1 by peptides, viruses, IMCs and controls; assay type: cell-based, human; conditions: for % Inhibition ± SD of α4β7 integrin binding to MAdCAM-1: average of 3–7 experiments in triplicate; for Inhibition of α4β7 integrin binding to MAdCAM-1 by peptide (competition): peptide 10 μg/ml, cells pre-incubated 45 min 37°C, 2–4 experiments in triplicate
Protocol: 96-well plates were coated with MAdCAM-1 as described above. RPMI8866 cells (2 X 10^6/ ml) were incubated with cyclic V2 or V3 MN, TH023, or acute subtype C (C-6980v0c22) peptides or with scrambled flanking region (SFL) or the mid region (SMR) TH023 V2 or with a completely scrambled (SCR) TH023 peptide (10 μg/ml) for 45 minutes at 37°C before being added in triplicate to the MAdCAM-1 coated plates for 1 hour at 37°C. In concurrent experiments, RMI8866 cells were incubated with purified primary HIV-1 (0.75 ng to 6 ng/well p24) subtype B (SF162, US-1, JRFL), subtype CRF01_AE viruses (92TH023), IMCs (0.75 ng to 1000 ng/well p24 in each case) containing acute or chronic envelopes (Acute CRF01_AE (703357) [GenBank:JN944658], C (C-6980v0c22) [GenBank:HM215344], A(851891); Chronic CRF01_AE (CM235.2) [AF259954.1], C (ET02220LucR) [U46016]) or with pSG3Δenv. pSG3Δenv contained a four-nucleotide insertion mutation (CTAG) in Env, leading to a translation stop codon after amino acid residue 142. The pSG3Δenv clone is routinely used for generating Env pseudotyped infectious virions.
Viruses were tested in triplicate in two independent experiments. In additional experiments, mannose, HIV-1 p24, and ovalbumin (0.2–10 μg/ml) were used in the competition assay as nonspecific protein controls (data in Table 2; 3–7 experiments performed in triplicate), whereas, an anti-RSV mAb, Synagis® was used as a nonspecific antibody control. Synagis® was incubated for 45 minutes with either MAdCAM-1 or with RPMI8866 cells and then placed in the assay system. The remainder of the assay was similar to that described above. Significance was determined by paired Student’s t test.

α4β7 on RPMI8866 cells [2] = assay: Binding of α4β7 on RPMI8866 cells to plate-bound biotinylated V2/V3 peptides and its inhibition by ACT-1 (AlamarBlue); assay type: cell-based, human; conditions: streptavidin plate, biotinylated peptide 5 μg/ml; cells pre-incubated with ACT-1 0.5 μg/ml 45 min 37°C; 8 hour time point; average of 3 to 12 experiments in duplicate or triplicate
Protocol: Triplicate wells of a 96-well U-bottom polystyrene plate (Immunlon) were coated overnight at 4°C with 100 μl of 2 μg/ml of MAdCAM-1 or Streptavidin diluted in 0.05 M bicarbonate buffer, pH 9.6. The streptavidin-coated plates were then incubated with biotinylated cyclic or linear V2 peptides or cyclic V3 peptides (5 μg/ml in bicarbonate buffer, See Table 1 for sequence data) for 1 hour at 37°C. The solution from the plates was discarded and the plates were then blocked with blocking buffer (25 mM TRIS, 2.7 mM potassium chloride, 150 mM sodium chloride, 0.5% casein, 4 mM manganese chloride, pH 7.2) for 1 hour at 37°C. The solution was discarded and the plates were incubated with sample buffer (25 mM TRIS, 2.7 mM potassium chloride, 150 mM sodium chloride, 4 mM manganese chloride, pH 7.2 containing 1% fetal bovine sera) for 45 minutes at 37°C. Plates were manually washed 4 times with blocking buffer followed by the addition of 2 x 10^5 RPMI8866 cells/well that had been pre-incubated for 45 minutes at 37°C with sample buffer, with sample buffer containing 0.5 μg/ml of mAb ACT-1 or as a control, normal mouse serum (1:100). Plates were then incubated at 37°C (5% CO2) for 1 hour, washed 5 times with wash buffer followed by the addition of 100 μl of RPMI-1640 containing 1% FBS, pen/strep/glutamine. The adhered cells were detected by the addition of 10 μl of AlamarBlue® dye. Plates were incubated at 37°C (5% CO2) for 8 hours. Fluorescence was measured at 2 hour intervals using a M2 plate reader. For each condition, a minimum of 2 to 12 independent experiments run in duplicate or triplicate was performed. The optimum amount of coating proteins/peptides and the amount of ACT-1 required to inhibit α4β7 on RPMI8866 cells was determined in separate experiments (data not shown).

α4β7 on RPMI8866 cells [3] = assay: Flow cytometry binding of ACT-1, gp120 and cyclic V2 peptides to RPMI8866 cells; set-up: species or system human; conditions: gp120 2.5 μg (anti-gp145 + anti-mouse Texas Red); biotinylated peptides 1 μg and 5 μg (neutrAvidin-PE); 30 min on ice; n = 2
Protocol: RPMI8866 cells (0.5 x10^6) were incubated for 30 minutes on ice with 10% normal goat sera in PBS to block the Fc receptors. Cells were suspended in cold FACS buffer (PBS-containing 0.5% BSA) and incubated at room temperature for 30 minutes with the mAb ACT-1 conjugated to APC (1 μg). Cells were washed twice with cold FACS buffer, fixed with 2% formaldehyde in PBS, and analyzed on a LSRII flow cytometer. The data was analyzed using FlowJo8.8.6 software (TreeStar Inc.).
RPMI8866 cells (1 x10^6) were suspended in cold FACS buffer (PBS-containing 0.5% BSA) and incubated at room temperature for 30 minutes with LIVE ⁄ DEAD® Fixable Dead Cell Stain (Life Technologies) as per the manufacturer’s instruction. Cells were washed twice with cold FACS buffer before being incubated with 10% goat sera in PBS for 30 minutes on ice. All subsequent incubations were carried out for 30 minutes on ice. CHO- expressed HIV-1IIIB rgp120 (2.5 μg) and biotinylated cyclic V2-TH023 peptide (1 μg and 5 μg) were incubated with RPMI8866 cells. […] Cells were washed twice with cold FACS buffer, fixed with 2% formaldehyde in PBS, and analyzed on a LSRII flow cytometer. The data was analyzed using FlowJo8.8.6 software (TreeStar Inc.).

Molecule	Percent inhibition by ACT-1 of binding of α4β7 on RPMI8866 cells to the plate-bound peptide (α4β7 on RPMI8866 cells [2])	Inhibition of α4β7 integrin binding to MAdCAM-1 by peptide (competition) [1]	other results
OC[C@H]1OC(O)[C@@H](O)[C@@H](O)[C@@H]1O (stereo partly drawn) [Mannose, mannose, reference compound]			% Inhibition ± SD of α4β7 integrin binding to MAdCAM-1 ([1]; 0.2 μg/ml): 6.7 ± 7.6%; % Inhibition ± SD of α4β7 integrin binding to MAdCAM-1 ([1]; 1.0 μg/ml): 7.6 ± 8.8%; % Inhibition ± SD of α4β7 integrin binding to MAdCAM-1 ([1]; 5 μg/ml): 16.3 ± 14.9%; % Inhibition of α4β7 integrin binding to MAdCAM-1 ([1]; 10 μg/ml, average of triplicate determinations from a single experiment): 0%; Inhibition of α4β7 integrin binding to MAdCAM-1 by nonspecific controls (in words) ([1]; 0.2–10 μg/ml): no significant inhibition
CSFNITTELRDKRKKEHALFNNLDIVQLDGNSSLYRLINC (disulfide 1-40 (inferred)) [Cyclic V2 Acute C, cyclic V2 loop peptide based on acute C strain C06980v0c22]	72.3%		
CSFNITTSIGDKMQKEYALLYKLDIEPIDNDSTSYRLISC (disulfide 1-40 (inferred)) [Cyclic V2 MN, cyclic V2 loop peptide based on MN strain (subtype B)]	66.3%		
CSFNMTTELRDKKQKVHALFYKLDIVPIEDNTSSSEYRLINC (disulfide 1-42 (inferred)) [Cyclic V2 TH023, biotinylated cyclic V2 loop peptide of gp120, strain 92TH023 (CRF01_AE), HXB2 157–196]	62.9%	80–90%	Binding to α4β7 on RPMI8866 cells (flow cytometry) (α4β7 on RPMI8866 cells [3]): bound to α4β7
CTRPNNNTRKSIRIGPGQTFYATGDIIGDIRQAYC (disulfide 1-35 (inferred)) [Cyclic V3 Acute C, cyclic V3 loop peptide based on acute C strain C06980v0c22]	70.0%		
CTRPNYNKRKRIHIGPGRAFYTTKNIKGTIRQAHC (disulfide 1-35 (inferred)) [Cyclic V3 MN, cyclic V3 loop peptide based on MN strain (subtype B)]	75.5%	80%	
CTRPSNNTRTSINIGPGQVFYRTGDIIGDIRKAYC (disulfide 1-35 (inferred)) [Cyclic V3 TH023, cyclic V3 loop peptide, strain 92TH023, HXB2 295–331]	67.6%	80–90% and 80%	
Synagis: anti-RSV mAb used as a nonspecific antibody control [reference compound]			Inhibition of α4β7 binding to MAdCAM-1 by nonspecific antibody control ([1]; mAb incubated 45 min either with MAdCAM-1-coated plate or with RPMI8866 cells, 3 experiments): did not inhibit the α4β7 binding
XSFNMTTELRDKKQKVHALFYKLDIVPIEDNTSSSEYRLINX [Linear V2 TH023, linear V2 92TH023 peptide with S-methyl Cysteine at both ends]	65.5%		
gp120: HIV-1IIIB rgp120 (CHO expressed) [reference compound]			Binding to α4β7 on RPMI8866 cells (flow cytometry) (α4β7 on RPMI8866 cells [3]): bound to α4β7
